Test results as given in ChEMBL document CHEMBL1155515, “Discovery of novel selective norepinephrine reuptake inhibitors: 4-[3-aryl-2,2-dioxido-2,1,3-benzothiadiazol-1(3H)-yl]-1-(methylamino)butan-2-ols (WYE-103231)” (J Med Chem, 2010).

Tests used:
Assay type in all cases: ADME, organism-based
[1] = Tmax in male rat at 10 mg/kg, po; design: dose 10 mg/kg, route oral; details: in vivo
[2] = Cmax in ovariectomised female rat at 5 mg/kg, po; design: dose 5 mg/kg, route oral; details: in vivo
[3] = Volume of distribution at steady state in intact female rat at 2 mg/kg, iv; design: dose 2 mg/kg, route intravenous; details: in vivo, read-out: Vdss
[4] = Oral bioavailability in male rat at 10 mg/kg; details: in vivo
[5] = Volume of distribution at steady state in ovariectomised female rat at 2 mg/kg, iv; design: dose 2 mg/kg, route intravenous; details: in vivo, read-out: Vdss
[6] = AUC (0 to infinity) in ovariectomised female rat at 2 mg/kg, iv; design: time infinity, dose 2 mg/kg, route intravenous; details: plasma
[7] = Cmax in male rat at 10 mg/kg, po; design: dose 10 mg/kg, route oral; details: in vivo
[8] = AUC (0 to infinity) in male rat at 10 mg/kg, po; design: time infinity, dose 10 mg/kg, route oral; details: plasma
[9] = Tmax in intact female rat at 5 mg/kg, po; design: dose 5 mg/kg, route oral; details: in vivo
[10] = Oral bioavailability in intact female rat at 5 mg/kg; details: in vivo
[11] = AUC (0 to infinity) in ovariectomised female rat at 5 mg/kg, po; design: dose 5 mg/kg, route oral, time infinity; details: plasma
[12] = Volume of distribution at steady state in male rat at 2 mg/kg, iv; design: dose 2 mg/kg, route intravenous; details: in vivo, read-out: Vdss
[13] = AUC (0 to infinity) in intact female rat at 2 mg/kg, iv; design: time infinity, dose 2 mg/kg, route intravenous; details: plasma
[14] = AUC (0 to infinity) in male rat at 2 mg/kg, iv; design: time infinity, dose 2 mg/kg, route intravenous; details: plasma
[15] = Ratio of drug level from brain to plasma in ovariectomised female rat; details: read-out: BPR
[16] = Oral bioavailability in ovariectomised female rat at 5 mg/kg; details: in vivo
[17] = AUC (0 to infinity) in intact female rat at 5 mg/kg, po; design: time infinity, dose 5 mg/kg, route oral; details: plasma
[18] = Cmax in intact female rat at 5 mg/kg, po; design: dose 5 mg/kg, route oral; details: in vivo
[19] = Tmax in ovariectomised female rat at 5 mg/kg, po; design: dose 5 mg/kg, route oral; details: in vivo

Tmax [1]: 1.38 h
Cmax [2]: 125 ng/mL
Vd [3]: 11.3 L/kg
bioavailability [4]: 100%
Vd [5]: 25.3 L/kg
AUC(0-inf) [6]: 505 ng·h/mL
Cmax [7]: 154 ng/mL
AUC(0-inf) [8]: 1040 ng·h/mL
Tmax [9]: 0.56 h
bioavailability [10]: 41.3%
AUC(0-inf) [11]: 1200 ng·h/mL
Vd [12]: 36.3 L/kg
AUC(0-inf) [13]: 929 ng·h/mL
AUC(0-inf) [14]: 199 ng·h/mL
Kp [15]: 3.6
bioavailability [16]: 95.2%
AUC(0-inf) [17]: 959 ng·h/mL
Cmax [18]: 135 ng/mL
Tmax [19]: 1.63 h
SMILES: CNC[C@@H](O)CCN1c2ccccc2N(c2ccccc2F)S1(=O)=O
